Assay results as given in US11447500B2, “Thienopyridine derivatives and pharmaceutical composition comprising same” (WELLMARKER BIO CO., LTD., priority 2018, dated 2022).

How the values were obtained:
HT29 cells = test: Cytotoxicity MTS assay, HT29; format: cell-based; settings: Homo sapiens, HT-29, 72 hours
Description: (§1) In order to confirm the specific cytotoxicity of the drugs, the cultured cells were treated with 0.05% trypsin/EDTA (0.5% trypsin EDTA (10×), Product No.: 15400-054, GIBCO) to detach them from the culture dish, and 3,000 cells (KM12C) or 2,000 cells (HT29, Colo 320 HSR) were dispensed into each well.
(§2) After 24 hours, sample compounds were dissolved in DMSO (Product No.: D8418-250ML, SIGMA) to make 10 mM stock solutions. As the sample compounds, the compounds synthesized in the examples of the present invention and the compounds of the comparative examples were used.
(§3) The cells were treated with the sample compound dilutions, and cultured in a 5% CO2 incubator at 37° C. for 72 hours.
(§4) Thereafter, 20 μL of MTS solution (CellTiter™ 96 Aqueous One Solution Cell Proliferation Assay, Product No.: G3581, Promega) was dispensed into each well and mixed well, and the cells were incubated for 1 to 4 hours at 37° C. in a 5% CO2 incubator.

[1] = test system: RON-mutated (Δ160) HT-29 colon cancer cell line; test: Cell killing efficacy, trypan blue exclusion assay, HT-29; format: cell-based; settings: HT29 cell, 48 hours
How it was run: (§5)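 KM12C (MEM+10% FBS) and HT-29 (RPMI+10% FBS) cells, seeded 24 h earlier, exposed to compound at 1 μM or 5 μM for 48 h after medium change. Live and dead cells counted by trypan blue exclusion (n=2); cell death rate reported relative to a reference comparative compound.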

[2] = test system: RON-activated KM12C colon cancer cell line; test: Cell killing efficacy, trypan blue exclusion assay, KM12C; format: cell-based; settings: 48 hours
How it was run: as §5

RON kinase = molecular target: T1, RON kinase (Homo sapiens, UniProt Q04912); test: RON kinase enzyme inhibitory activity, FRET (TR-FRET) technique; format: biochemical; settings: 60 min reaction
T1 construct: purchased Carna Bioscience
T1 sequence (Q04912 25-1400): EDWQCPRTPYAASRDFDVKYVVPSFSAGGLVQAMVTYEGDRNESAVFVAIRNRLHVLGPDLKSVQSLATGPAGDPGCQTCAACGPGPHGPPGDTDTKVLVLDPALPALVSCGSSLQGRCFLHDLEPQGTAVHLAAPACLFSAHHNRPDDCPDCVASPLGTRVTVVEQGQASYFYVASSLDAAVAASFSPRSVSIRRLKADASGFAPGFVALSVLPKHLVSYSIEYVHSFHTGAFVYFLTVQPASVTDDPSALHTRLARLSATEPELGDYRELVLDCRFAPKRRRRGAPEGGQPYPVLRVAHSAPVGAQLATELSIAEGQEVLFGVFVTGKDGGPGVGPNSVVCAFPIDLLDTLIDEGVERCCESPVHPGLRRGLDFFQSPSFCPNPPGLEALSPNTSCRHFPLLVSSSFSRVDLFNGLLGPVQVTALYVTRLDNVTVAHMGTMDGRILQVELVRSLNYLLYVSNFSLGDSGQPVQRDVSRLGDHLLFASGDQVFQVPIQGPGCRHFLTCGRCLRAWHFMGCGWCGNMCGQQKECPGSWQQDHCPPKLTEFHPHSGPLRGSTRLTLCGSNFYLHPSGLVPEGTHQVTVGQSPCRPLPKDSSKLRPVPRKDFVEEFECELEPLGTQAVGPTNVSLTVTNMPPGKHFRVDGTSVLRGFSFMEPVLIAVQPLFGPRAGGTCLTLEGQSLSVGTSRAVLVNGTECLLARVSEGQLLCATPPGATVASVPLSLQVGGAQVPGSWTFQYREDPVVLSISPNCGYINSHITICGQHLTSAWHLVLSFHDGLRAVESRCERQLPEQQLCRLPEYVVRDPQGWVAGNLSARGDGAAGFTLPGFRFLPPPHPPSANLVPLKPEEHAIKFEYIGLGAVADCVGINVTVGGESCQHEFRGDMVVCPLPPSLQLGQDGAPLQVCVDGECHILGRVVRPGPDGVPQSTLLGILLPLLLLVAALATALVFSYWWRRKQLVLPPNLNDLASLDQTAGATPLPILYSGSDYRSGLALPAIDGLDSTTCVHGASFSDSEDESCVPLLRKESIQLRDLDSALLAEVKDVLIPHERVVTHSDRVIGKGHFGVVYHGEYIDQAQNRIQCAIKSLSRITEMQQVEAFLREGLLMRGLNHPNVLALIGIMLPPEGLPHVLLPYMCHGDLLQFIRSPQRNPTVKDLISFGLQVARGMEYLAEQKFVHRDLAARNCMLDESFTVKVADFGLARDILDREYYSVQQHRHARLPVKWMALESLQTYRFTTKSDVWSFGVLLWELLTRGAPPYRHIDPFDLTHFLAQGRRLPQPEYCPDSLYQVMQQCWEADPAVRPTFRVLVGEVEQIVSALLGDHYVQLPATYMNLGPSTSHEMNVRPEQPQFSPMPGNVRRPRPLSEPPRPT
How it was run: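 RON kinase (2× stock 0.4 nM) was preincubated 15 min with compound in HEPES pH 7.5/MgCl2 buffer, then reacted 60 min at room temperature with ATP (4× stock 60 μM) and tyrosine peptide substrate (4× stock 400 nM). The reaction was stopped with EDTA plus Eu-anti-phosphotyrosine antibody and read by TR-FRET (ex 340, em 620/665 nm). IC50 came from 665 nm emission versus concentration.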

KM12C cells = test: Cytotoxicity MTS assay, KM12C; format: cell-based; settings: Homo sapiens, 72 hours
Description: as §1, §2, §3, §4

Structure (SMILES) | IC50 (HT29 cells) | Cell death rate (Relative to Comp. Ex. 1) ([1]; 1 μM) | Cell death rate (Relative to Comp. Ex. 1) ([1]; 5 μM) | Cell death rate (Relative to Comp. Ex. 1) ([2]; 1 μM) | Cell death rate (Relative to Comp. Ex. 1) ([2]; 5 μM) | IC50 (RON kinase) | IC50 (KM12C cells)
CCOc1ccn(-c2ccc(F)cc2)c(=O)c1C(=O)Nc1ccc(Oc2ccnc(N)c2Cl)c(F)c1 [Comp. Ex. 1, N-{4-[(2-amino-3-chloro-4-pyridinyl)oxy]-3-fluorophenyl}-4-ethoxy-1-(4-fluorophenyl)-2-oxo-1,2-dihydro-3-pyridinecarboxamide, reference compound] | 10000 to 20000 nM | x 1.00 | x 1.00 | x 1.00 | x 1.00 | 1.11 nM | 511 nM
CCOc1ccn(-c2cccc(F)c2)c(=O)c1C(=O)Nc1ccc(Oc2ccnc3cc(-c4ccc(CNCCOC)cn4)sc23)c(F)c1.Cl [Example 14, 4-ethoxy-N-(3-fluoro-4-{[2-(5-{[(2-methoxyethyl)amino]methyl}pyridin-2-yl)thieno[3,2-b]pyridin-7-yl]oxy}phenyl)-1-(3-fluorophenyl)-2-oxo-1,2-dihydropyridine-3-carboxamide Hydrochloride] | 668 nM | x 1.59 | x 3.81 | x 1.58 | x 1.43 | 0.45 nM | 63 nM
COCCNCc1ccc(-c2cc3nccc(Oc4ccc(NC(=O)c5c(C)ccn(-c6ccccc6)c5=O)cc4F)c3s2)nc1.Cl [Example 28, N-(3-fluoro-4-{[-2-(5-{[(2-methoxyethyl)amino]methyl}pyridin-2-yl)thieno[3,2-b]pyridin-7-yl]oxy}phenyl)-4-methyl-2-oxo-1-phenyl-1,2-dihydropyridine-3-carboxamide Hydrochloride] | 908 nM | x 1.46 | x 2.65 | x 1.22 | x 1.58 | 0.56 nM | 59 nM
